# Target: cIAP1 BIR3 (Homo sapiens (Human), UniProt Q13490)
# Assay: cIAP1 BIR3 binding assay (DELFIA), BIR3 domain-SMAC peptide interaction
# Settings: not given
# Protocol: XIAP BIR3 and cIAP1 BIR3 Binding Assays (DELFIA)
# Peptide […]-Lys(Biotin), representing the N-terminus of mature human SMAC(SMAC peptide), was used as interaction partner in the protein-peptide interaction assay.
# BIR3 domains (10 nM) were incubated with SMAC peptide (10 nM) in assay buffer (50 mM Tris, 120 mM NaCl, 0.1% BSA, 1 mM DTT, 0.05% TritonX100) for one hour at room temperature in the presence of inhibitory compounds. The assay mixture was transferred to a strepatvidin coated plate and incubated for one hour at room temperature to allow binding of the biotinylated peptide and associated BIR3 domains to the plate. After several washing steps Eu labeled anti-GST antibody (e.g. Perkin Elmer DELFIA Eu-N1-antiGST AD0250) was added to detect BIR3 domain-SMAC peptide interactions according to Perkin Elmer's instructions. […] Time resolved Europium fluorescence was measured in a Wallac Victor using Standard assay settings.
# DELFIA assay results were plotted against compound concentrations and Software GraphPad Prizm was used to calculate half maximal inhibitory concentrations (IC50 values).
row,IC50,SMILES
1,1 nM,"CNC(C)C(=O)Nc1cc(-c2ncnc3ncn(C)c23)cc(C#Cc2ccc3c(C)nccc3c2)n1 (stereo not shown) [Example 6, N-[4-(7-methyl-7H-purin-6-yl)-6-[2-(1-methylisoquinolin-6-yl)ethynyl]pyridin-2-yl]-2-(methylamino)propanamide]"
2,2 nM,"CNC(C)C(=O)Nc1cc(-c2ncnc3ncn(C)c23)cc(C#Cc2ccccc2)n1 (stereo not shown) [Example 7, N-[4-(7-methyl-7H-purin-6-yl)-6-(2-phenylethynyl)pyridin-2-yl]-2-(methylamino)propanamide]"
3,1 nM,"CNC(C)C(=O)Nc1cc(-c2ncnc3ncn(C)c23)cc(C#Cc2ccc3c(ccc(=O)n3C)c2)n1 (stereo not shown) [Example 8, N-{6-[2-(1-methyl-2-oxo-1,2-dihydroquinolin-6-yl)ethynyl]-4-(7-methyl-7H-purin-6-yl)pyridin-2-yl}-2-(methylamino)propanamide]"
4,2 nM,"CNC(C)C(=O)Nc1cc(-c2ncnc3ncn(C)c23)cc(C#Cc2ccc(-n3cnc(C)c3)cc2)n1 (stereo not shown) [Example 9, N-(6-{2-[4-(4-methyl-1H-imidazol-1-yl)phenyl]ethynyl}-4-(7-methyl-7H-purin-6-yl)pyridin-2-yl)-2-(methylamino)propanamide]"

# Same assay, conditions: BIR3 domain 10 nM, SMAC peptide 10 nM; (S)-isomer (examples 1-34, 38-43) or racemate (examples 35-37); read-out: cIAP1 BIR-3 IC50
row,SMILES,IC50
1,"CNC(C)C(=O)Nc1cc(-c2ncnc3c(C)nn(C)c23)cc(C#Cc2ccc3c(cnn3C)c2)n1 (stereo not shown) [Example 1, N-(4-{1,3-dimethyl-1H-pyrazolo[4,3-d]pyrimidin-7-yl}-6-[2-(1-methyl-1H-indazol-5-yl)ethynyl]pyridin-2-yl)-2-(methylamino)propanamide]",1 nM
2,"CNC(C)C(=O)Nc1cc(-c2ncnc3c(C)nn(C)c23)cc(C#Cc2ccc3c(C)nccc3c2)n1 (stereo not shown) [Example 2, N-(4-{1,3-dimethyl-1H-pyrazolo[4,3-d]pyrimidin-7-yl}-6-[2-(1-methylisoquinolin-6-yl)ethynyl]pyridin-2-yl)-2-(methylamino)propanamide]",1 nM
3,"CNC(C)C(=O)Nc1cc(-c2ncnc3c(C)nn(C)c23)cc(C#Cc2cc(C)nc3c(F)cccc23)n1 (stereo not shown) [Example 3, N-(4-{1,3-dimethyl-1H-pyrazolo[4,3-d]pyrimidin-7-yl}-6-[2-(8-fluoro-2-methylquinolin-4-yl)ethynyl]pyridin-2-yl)-2-(methylamino)propanamide]",1 nM
4,"CNC(C)C(=O)Nc1cc(-c2ncnc3c(C)nn(C)c23)cc(C#Cc2ccn3c(C)ncc3c2)n1 (stereo not shown) [Example 4, N-(4-{1,3-dimethyl-1H-pyrazolo[4,3-d]pyrimidin-7-yl}-6-(2-{3-methylimidazo[1,5-a]pyridin-7-yl}ethynyl)pyridin-2-yl)-2-(methylamino)propanamide]",1 nM
5,"CNC(C)C(=O)Nc1cc(-c2c(OC)ccc3nc(C)ccc23)cc(C#Cc2ccccc2)n1 (stereo not shown) [Example 5, N-[4-(6-methoxy-2-methylquinolin-5-yl)-6-(2-phenylethynyl)pyridin-2-yl]-2-(methylamino)propanamide]",59 nM
6,"CNC(C)C(=O)Nc1cc(-c2ncnc3oc(C)c(C)c23)cc(C#Cc2ccccc2)n1 (stereo not shown) [Example 10, N-(4-{5,6-dimethylfuro[2,3-d]pyrimidin-4-yl}-6-(2-phenylethynyl)pyridin-2-yl)-2-(methylamino)propanamide]",2 nM

# More lines, now with the values ahead:
row,IC50,SMILES
1,250 nM,"CNC(C)C(=O)Nc1cc(-c2ccncc2)c(-c2cncnc2)c(C#Cc2ccccc2)n1 (racemic) [Example 35, 2-(methylamino)-N-[6-(2-phenylethynyl)-4-(pyridin-4-yl)-5-(pyrimidin-5-yl)pyridin-2-yl]propanamide]"
2,172 nM,"CNC(C)C(=O)Nc1cc(-c2cccnc2)c(-c2cncnc2)c(C#Cc2ccccc2)n1 (racemic) [Example 36, 2-(methylamino)-N-[6-(2-phenylethynyl)-4-(pyridin-3-yl)-5-(pyrimidin-5-yl)-pyridin-2-yl]propanamide]"
3,6 nM,"CCNC(CC)C(=O)Nc1cc(-c2ncnc3c(C)nn(C)c23)cc(C#Cc2ccc3c(C)nccc3c2)n1 (racemic) [Example 37, N-(4-{1,3-dimethyl-1H-pyrazolo[4,3-d]pyrimidin-7-yl}-6-[2-(1-methylisoquinolin-6-yl)ethynyl]pyridin-2-yl)-2-(ethylamino)butanamide]"
4,1 nM,"CNC(C)C(=O)Nc1cc(-c2cccc3nc(C)c(C)n23)cc(C#Cc2ccc3c(C)nccc3c2)n1 (stereo not shown) [Example 11, N-(4-{2,3-dimethylimidazo[1,2-a]pyridin-5-yl}-6-[2-(1-methylisoquinolin-6-yl)ethynyl]pyridin-2-yl)-2-(methylamino)propanamide]"
5,11 nM,"CNC(C)C(=O)Nc1cc(-c2cccc3cnn(C)c23)cc(C#Cc2ccc3c(c2)CC(=O)N3C)n1 (stereo not shown) [Example 12, N-[4-(1-methyl-1H-indazol-7-yl)-6-[2-(1-methyl-2-oxo-2,3-dihydro-1H-indol-5-yl)ethynyl]pyridin-2-yl]-2-(methylamino)propanamide]"
6,1 nM,"CNC(C)C(=O)Nc1cc(-c2cnc3cccc(C)n23)cc(C#Cc2ccc3c(C)nccc3c2)n1 (stereo not shown) [Example 13, 2-(methylamino)-N-(4-{5-methylimidazo[1,2-a]pyridin-3-yl}-6-[2-(1-methylisoquinolin-6-yl)ethynyl]pyridin-2-yl)propanamide]"
7,1 nM,"CNC(C)C(=O)Nc1cc(-c2c(C)nc(C)c3c(=O)n(C)n(C)c23)cc(C#Cc2ccc3c(C)nccc3c2)n1 (stereo not shown) [Example 14, 2-(methylamino)-N-{6-[2-(1-methylisoquinolin-6-yl)ethynyl]-4-{1,2,4,6-tetramethyl-3-oxo-1H,2H,3H-pyrazolo[4,3-c]pyridin-7-yl}pyridin-2-yl}propanamide]"
8,1 nM,"CNC(C)C(=O)Nc1cc(-c2nc(C)nc3c(C)nn(C)c23)cc(C#Cc2ccc3c(ccc(=O)n3C)c2)n1 (stereo not shown) [Example 15, N-{6-[2-(1-methyl-2-oxo-1,2-dihydroquinolin-6-yl)ethynyl]-4-{trimethyl-1H-pyrazolo[4,3-d]pyrimidin-7-yl}pyridin-2-yl}-2-(methylamino)propanamide]"
9,1 nM,"CNC(C)C(=O)Nc1cc(-c2nc(C)nc3nn(C)c(C)c23)cc(C#Cc2ccc3c(C)nccc3c2)n1 (stereo not shown) [Example 18, 2-(methylamino)-N-{6-[2-(1-methylisoquinolin-6-yl)ethynyl]-4-{trimethyl-2H-pyrazolo[3,4-d]pyrimidin-4-yl}pyridin-2-yl}-propanamide]"
10,2 nM,"CNC(C)C(=O)Nc1cc(-c2nc(C)nc3nn(C)c(C)c23)cc(C#Cc2ccc3c(ccc(=O)n3C)c2)n1 (stereo not shown) [Example 19, N-{6-[2-(1-methyl-2-oxo-1,2-dihydroquinolin-6-yl)ethynyl]-4-{trimethyl-2H-pyrazolo[3,4-d]pyrimidin-4-yl}pyridin-2-yl}-2-(methylamino)propanamide]"
11,1 nM,"CNC(C)C(=O)Nc1cc(-c2nc(C)nc3nn(C)c(C)c23)cc(C#Cc2ccc3c(cnn3C)c2)n1 (stereo not shown) [Example 20, N-{6-[2-(1-methyl-1H-indazol-5-yl)ethynyl]-4-{trimethyl-2H-pyrazolo[3,4-d]pyrimidin-4-yl}pyridin-2-yl}-2-(methylamino)-propanamide]"
12,1 nM,"CNC(C)C(=O)Nc1cc(-c2nc(C)nc3nn(C)c(C)c23)cc(C#Cc2cnc(-n3cnc(C)c3)nc2)n1 (stereo not shown) [Example 21, N-(6-{2-[2-(4-methyl-1H-imidazol-1-yl)pyrimidin-5-yl]ethynyl}-4-{trimethyl-2H-pyrazolo[3,4-d]pyrimidin-4-yl}pyridin-2-yl)-2-(methyl-amino)propanamide]"

# From US9278978B2, “6-Alkynyl Pyridine” (Boehringer Ingelheim International GmbH, priority 2013, dated 2016)
